From paper PMC6290023 (Scientific Reports, 2018)
Peptide text beside a SMILES is read from it.

Assays:
[1] = Stability of MHP1 in mouse serum (HPLC/MS); assay type: in vitro ADME; conditions: mouse (CD-1(ICR)) serum, 200 μg/mL MHP1, 37 °C, HPLC UV 210 nm, mean ± SD
Procedure: Mouse (CD-1(ICR)) serum was obtained from KAC (Kyoto, Japan) and stored below −15 °C until use. MHP1 (2 mg/mL in ultrapure water) was spiked in mouse serum on ice to obtain a final concentration of 200 μg/mL. The serum was incubated at 37 °C and aliquots of the reaction mixture collected at the incubation times 0, 10, 30, and 60 min. Each aliquot was deproteinized with the addition of an ice-cold solvent (acetonitrile: methanol: acetic acid = 500:500:1). The mixtures were left at −20 °C for 20 minutes and stored on ice. After the addition of 1% acetic acid, the mixture was vigorously vortexed and centrifuged (12000 × g, 4 °C, 10 min). The supernatant was injected into the HPLC system and analyzed by reversed-phase chromatography with a water–acetonitrile (0.1% trifluoroacetic acid) linear gradient elution. MHP1 was detected by ultraviolet light at 210 nm.

LPS-stimulated MG6 cells = conditions: peptide incubated at 37 °C for 24 h; cited from earlier work
Procedure: This might be a result of the key sequence of MHP1 being preserved owing to N-terminus acetylation, which generally makes the peptide resistant to protease degradation. The difference in causing sedimentation at 37 °C for 24 h between MHP1-Ac and MHP1-AcN was dependent on the existence of C-terminal amidation, which has been reported to promote the stabilization of the secondary structure of the peptide.

TLR2, 7, 8 = conditions: cited from earlier work
Excerpt: (§1) To solve this problem, we developed a novel peptide “microglial healing peptide1 (MHP1)”, which is a partial peptide of RANKL, to inhibit […] inflammation without activating osteoclast. The binding sites of RANKL for its receptor RANK responsible for osteoclastogenesis were not included in the MHP1 sequence, but other binding sites that are unrelated to osteoclastogenesis (DE and EF loops) were included. […] The sequence of MHP1 is “[…]” and we demonstrat ...

[2] = tested on: mouse osteoclast precursor cells; conditions: cited from earlier work
Excerpt: as §1

tMCAo model in mice = conditions: cited from earlier work
Procedure: As we have previously shown that intravenous injection of MHP1 (150 μL, 2 mg/ml), started from 6 hrs after tMCAo and followed by subcutaneous injection with Alzet pump (200 μL, 2 mg/ml) for 24 h, is effective, we studied whether a lower dose of MHP1-AcN was effective in reducing ischemic injury.

[3] = tested on: FeCl3-induced thrombosis model in CCA; experiment: FeCl3-induced thrombosis model in CCA, thrombolysis with tPA; assay type: in vivo; conditions: mouse, tPA 10 mg/kg 30 min post-CCA occlusion
Procedure: The ischemic damage was evaluated at 48 h after MCAo in sections stained with cresyl violet. Coronal sections (12 μm thickness) were made at −1.4, −0.7, 0, 0.7 and 1.4 mm from the bregma, mounted on the stereomicroscope and photographed. The volume of the infarct was calculated by the sum of each area of all sections corrected by cerebral edema and multiplied by the thickness of the slices. In the experiment of tPA-induced hemorrhage, PE10-catheter was placed in the right internal jugular vein at 6 h after ischemia. The nylon suture was then removed and 10% of the MHP-AcN mixture (150 µg/mice) and tPA (10 mg/kg) were injected followed by continuous injection of residual mixture of MHP1-AcN and tPA using a syringe pump (UNIVENTOR 400 ANAESTHESIA UNIT, ZTN, MALTA). In the experiment of FeCl3 -induced thrombosis model in CCA, a piece of filter paper soaked in 7.5% FeCl3 was placed on the right CCA for 1 min and it was rinsed with saline. Blood flow was recorded by using a laser speckle blood flow imager (OMEGAZONE OZ-2, OMEGAWAVE, INC., Tokyo, Japan). tPA (10 mg/kg) or mixture of MHP1-AcN (150 μg/mice) and tPA was started to be administered at 30 min after CCA occlusion.

Compound | remaining at 10 min, 200 μg/mL ([1]; 10 min, read-out: residual MHP1 remaining intact in mouse serum) [%] | residual MHP1 remaining intact in mouse serum ([1]; 30 min) [%] | remaining at 0.5 h, 200 μg/mL ([1]; 30 min, read-out: residual MHP1 remaining intact in mouse serum) [%] | remaining at 1 h, 200 μg/mL ([1]; 60 min, read-out: residual MHP1 remaining intact in mouse serum) [%] | anti-inflammatory effects after incubation at 37 °C for 24 h (LPS-stimulated MG6 cells) | effect on TLR2, 7, 8-induced inflammations (TLR2, 7, 8) | effect on RANKL-induced osteoclast activation [2] | effect on osteoclast activation (peptide alone) [2] | efficacy in tMCAo (tMCAo model in mice; i.v. 150 μL, 2 mg/ml from 6 hrs after tMCAo, then s.c. Alzet pump 200 μL, 2 mg/ml for 24 h) | ischemic injury in tMCAO model (tMCAo model in mice; intracerebroventricularly 4 h, or intravenously 4 or 6 h post-ischemia) | time from tPA application to clot lysis (recanalization) [3]
CC[C@H](C)[C@H](NC(=O)[C@H](CO)NC(=O)[C@@H](NC(=O)[C@H](CCCCN)NC(=O)[C@@H](NC(=O)[C@@H](NC(=O)[C@H](Cc1ccc(O)cc1)NC(=O)[C@@H](NC(=O)[C@H](CCSC)NC(=O)[C@@H](N)CC(C)C)C(C)C)C(C)C)C(C)C)[C@@H](C)O)C(=O)N[C@@H](CCCCN)C(=O)N[C@H](C(=O)N1CCC[C@H]1C(=O)N[C@@H](CO)C(=O)N[C@@H](CO)C(=O)N[C@@H](Cc1c[nH]cn1)C(=O)N[C@@H](CC(N)=O)C(=O)N[C@@H](CC(C)C)C(=O)N[C@@H](CCSC)C(=O)N[C@@H](CCCCN)C(=O)NCC(=O)NCC(=O)N[C@@H](CO)C(=O)N[C@H](C(=O)N[C@@H](CCCCN)C(=O)N[C@@H](CC(N)=O)C(=O)N[C@@H](Cc1c[nH]c2ccccc12)C(=O)N[C@@H](CO)C(=O)NCC(=O)N[C@@H](CC(N)=O)C(=O)O)[C@@H](C)O)[C@@H](C)CC [MHP1] (H-LMVYVVKTSIKIPSSHNLMKGGSTKNWSGN-OH) | 83 ± 5.9 | 50.3 ± 3.6 | 50 | 27.5 ± 3.2 | loses its anti-inflammatory effects | inhibited | inhibited RANKL-induced osteoclast activation | did not affect osteoclast activation | effective | reduced | –
tPA: tissue plasminogen activator, thrombolytic used in acute ischemic stroke | – | – | – | – | – | – | – | – | – | – | approximately 20 min
